Measured values: ChEMBL document CHEMBL3045833, “Synthesis and antifungal activity of novel 7-O-substituted pyridyl-4-methyl coumarin derivatives” (2013)
In brackets after ≈: the same amount, converted by molar mass.

Columns and labels:
Type in all cases: functional
Aspergillus fumigatus = test: Antifungal activity against Aspergillus fumigatus assessed as growth inhibition by NCCLS microbroth dilution method
Trichophyton rubrum = test: Antifungal activity against Trichophyton rubrum assessed as growth inhibition by NCCLS microbroth dilution method
Cryptococcus neoformans = test: Antifungal activity against Cryptococcus neoformans assessed as growth inhibition after 72 hr by NCCLS microbroth dilution method
Kluyveromyces marxianus = test: Antifungal activity against Kluyveromyces marxianus assessed as growth inhibition by NCCLS microbroth dilution method
Candida parapsilosis = test: Antifungal activity against Candida parapsilosis assessed as growth inhibition by NCCLS microbroth dilution method; conditions: Lodderomyces parapsilosis
Candida tropicalis = test: Antifungal activity against Candida tropicalis assessed as growth inhibition by NCCLS microbroth dilution method
Candida albicans [1] = test: Antifungal activity against Candida albicans Y0109 assessed as growth inhibition after 24 hr by NCCLS microbroth dilution method; conditions: Y0109, 24 h
Candida albicans [2] = test: Antifungal activity against Candida albicans SC5314 assessed as growth inhibition after 24 hr by NCCLS microbroth dilution method; conditions: SC5314, 24 h

Compound | MIC80 (Aspergillus fumigatus) | MIC80 (Trichophyton rubrum) | MIC80 (Cryptococcus neoformans) | MIC80 (Kluyveromyces marxianus) | MIC80 (Candida parapsilosis) | MIC80 (Candida tropicalis) | MIC80 (Candida albicans [1]) | MIC80 (Candida albicans [2])
Cc1cc(=O)oc2cc(Oc3ccc(NC(=O)Cc4c[nH]c5ccccc45)cn3)ccc12 | > 64 µg/mL | 16 µg/mL | 8 µg/mL (≈ 18.8 µM) | > 64 µg/mL | > 64 µg/mL | > 64 µg/mL | 64 µg/mL (≈ 150 µM) | > 64 µg/mL
Cc1cc(=O)oc2cc(Oc3ccc(NC(=O)/C=C/c4ccccc4)cn3)ccc12 | > 64 µg/mL | 4 µg/mL | > 64 µg/mL | 16 µg/mL | > 64 µg/mL | > 64 µg/mL | > 64 µg/mL | > 64 µg/mL
Cc1cc(=O)oc2cc(Oc3ccc(NC(=O)CN(C)C)cn3)ccc12 | > 64 µg/mL | 16 µg/mL | 16 µg/mL (≈ 45.3 µM) | 32 µg/mL | 32 µg/mL | 1 µg/mL | 16 µg/mL (≈ 45.3 µM) | 32 µg/mL (≈ 90.6 µM)
Cc1cc(=O)oc2cc(Oc3ccc(NC(=O)c4ccco4)cn3)ccc12 | > 64 µg/mL | 16 µg/mL | > 64 µg/mL | 16 µg/mL | > 64 µg/mL | 8 µg/mL | 16 µg/mL (≈ 44.2 µM) | 32 µg/mL (≈ 88.3 µM)
Cc1cc(=O)oc2cc(Oc3ccc(NC(=O)c4ccccn4)cn3)ccc12 | > 64 µg/mL | 16 µg/mL | 32 µg/mL (≈ 85.7 µM) | 16 µg/mL | 32 µg/mL | 16 µg/mL | 16 µg/mL (≈ 42.9 µM) | 16 µg/mL (≈ 42.9 µM)
Cc1cc(=O)oc2cc(Oc3ccc(NC(=O)Cc4ccccc4)cn3)ccc12 | > 64 µg/mL | > 64 µg/mL | > 64 µg/mL | > 64 µg/mL | > 64 µg/mL | > 64 µg/mL | > 64 µg/mL | > 64 µg/mL
Cc1cc(=O)oc2cc(Oc3ccc(NC(=O)c4ccncc4)cn3)ccc12 | > 64 µg/mL | 32 µg/mL | 32 µg/mL (≈ 85.7 µM) | 8 µg/mL | 0.25 µg/mL | 16 µg/mL | 16 µg/mL (≈ 42.9 µM) | 16 µg/mL (≈ 42.9 µM)
Cc1cc(=O)oc2cc(Oc3ccc(NC(=O)CC#N)cn3)ccc12 | > 64 µg/mL | 0.25 µg/mL | 16 µg/mL (≈ 47.7 µM) | 16 µg/mL | 4 µg/mL | > 64 µg/mL | 16 µg/mL (≈ 47.7 µM) | 0.25 µg/mL (≈ 0.746 µM)
Cc1cc(=O)oc2cc(O)ccc12 [HYMECROMONE] | > 64 µg/mL | 32 µg/mL | > 64 µg/mL | > 64 µg/mL | 32 µg/mL | > 64 µg/mL | > 64 µg/mL | > 64 µg/mL
Cc1cc(=O)oc2cc(Oc3ccc(NC(=O)C(F)(F)F)cn3)ccc12 | > 64 µg/mL | 16 µg/mL | 32 µg/mL (≈ 87.8 µM) | 32 µg/mL | 1 µg/mL | 16 µg/mL | 0.25 µg/mL (≈ 0.686 µM) | 0.25 µg/mL (≈ 0.686 µM)
OC(Cn1cncn1)(Cn1cncn1)c1ccc(F)cc1F [FLUCONAZOLE] | > 64 µg/mL | 1 µg/mL | 4 µg/mL (≈ 13.1 µM) | 4 µg/mL | 4 µg/mL | 4 µg/mL | 0.25 µg/mL (≈ 0.816 µM) | 0.25 µg/mL (≈ 0.816 µM)
Cc1cc(=O)oc2cc(Oc3ccc(NC(=O)c4cccs4)cn3)ccc12 | > 64 µg/mL | 16 µg/mL | 32 µg/mL (≈ 84.6 µM) | 32 µg/mL | 32 µg/mL | 16 µg/mL | 16 µg/mL (≈ 42.3 µM) | 32 µg/mL (≈ 84.6 µM)
Cc1cc(=O)oc2cc(Oc3ccc([N+](=O)[O-])cn3)ccc12 | > 64 µg/mL | 64 µg/mL | 64 µg/mL (≈ 215 µM) | > 64 µg/mL | 32 µg/mL | > 64 µg/mL | 64 µg/mL (≈ 215 µM) | > 64 µg/mL
Cc1cc(=O)oc2cc(Oc3ccc(N)cn3)ccc12 | > 64 µg/mL | 32 µg/mL | > 64 µg/mL | > 64 µg/mL | 32 µg/mL | > 64 µg/mL | 16 µg/mL (≈ 59.6 µM) | > 64 µg/mL
Cc1cc(=O)oc2cc(Oc3ccc(NC(=O)C4CCCCC4)cn3)ccc12 | > 64 µg/mL | 8 µg/mL | 32 µg/mL (≈ 84.6 µM) | > 64 µg/mL | 4 µg/mL | > 64 µg/mL | > 64 µg/mL | > 64 µg/mL
Cc1cnc(C(=O)Nc2ccc(Oc3ccc4c(C)cc(=O)oc4c3)nc2)cn1 | > 64 µg/mL | 16 µg/mL | 4 µg/mL (≈ 10.3 µM) | 4 µg/mL | > 64 µg/mL | 1 µg/mL | 16 µg/mL (≈ 41.2 µM) | 16 µg/mL (≈ 41.2 µM)
Cc1cc(=O)oc2cc(Oc3ccc(NC(=O)c4cccnc4)cn3)ccc12 | > 64 µg/mL | 32 µg/mL | 16 µg/mL (≈ 42.9 µM) | 16 µg/mL | 32 µg/mL | 32 µg/mL | 32 µg/mL (≈ 85.7 µM) | 32 µg/mL (≈ 85.7 µM)
Cc1cc(=O)oc2cc(Oc3ccc(NC(=O)C4CC4)cn3)ccc12 | > 64 µg/mL | 8 µg/mL | 32 µg/mL (≈ 95.1 µM) | 32 µg/mL | 8 µg/mL | 16 µg/mL | > 64 µg/mL | 16 µg/mL (≈ 47.6 µM)
Cc1cc(=O)oc2cc(Oc3ccc(NC(=O)C(C)(C)C)cn3)ccc12 | > 64 µg/mL | 1 µg/mL | 32 µg/mL (≈ 90.8 µM) | 16 µg/mL | 32 µg/mL | 32 µg/mL | 4 µg/mL (≈ 11.4 µM) | 4 µg/mL (≈ 11.4 µM)
C[C@@H]1[C@H](O)[C@@H](C)/C=C/C=C/C=C/C=C/C=C/C=C/C=C/[C@H](O[C@@H]2O[C@H](C)[C@@H](O)[C@H](N)[C@@H]2O)C[C@@H]2O[C@](O)(C[C@@H](O)C[C@@H](O)[C@H](O)CC[C@@H](O)C[C@@H](O)CC(=O)O[C@H]1C)C[C@H](O)[C@H]2C(=O)O [AMPHOTERICIN B] | 1 µg/mL | 1 µg/mL | 1 µg/mL (≈ 1.08 µM) | 0.25 µg/mL | 1 µg/mL | 1 µg/mL | 0.25 µg/mL (≈ 0.271 µM) | 0.25 µg/mL (≈ 0.271 µM)
Cc1cc(=O)oc2cc(Oc3ccc(NC(=O)c4ccccc4)cn3)ccc12 | > 64 µg/mL | 8 µg/mL | 16 µg/mL (≈ 43 µM) | 32 µg/mL | 1 µg/mL | 16 µg/mL | 4 µg/mL (≈ 10.7 µM) | 16 µg/mL (≈ 43 µM)
Cc1cc(=O)oc2cc(Oc3ccc(NC(=O)c4cnccn4)cn3)ccc12 | > 64 µg/mL | 0.25 µg/mL | 1 µg/mL (≈ 2.67 µM) | 16 µg/mL | 32 µg/mL | 1 µg/mL | 4 µg/mL (≈ 10.7 µM) | 4 µg/mL (≈ 10.7 µM)
CC(=O)Nc1ccc(Oc2ccc3c(C)cc(=O)oc3c2)nc1 | > 64 µg/mL | 16 µg/mL | 8 µg/mL (≈ 25.8 µM) | 16 µg/mL | 1 µg/mL | 8 µg/mL | 1 µg/mL (≈ 3.22 µM) | 0.25 µg/mL (≈ 0.806 µM)
